Reference: US11844801B2, “Oral compositions of MK2 pathway inhibitor for treatment of immune conditions” (priority 2020, dated 2023)
“And” between values parts separate entries of the source, which are not always exact repeats. Identical values can stand only once. Like-named read-outs stand apart in the source and are kept apart here. Marks after values point to notes of the source that are not given here.

Assay: Phase 1 SAD/MAD pharmacokinetics of oral ATI-450 in healthy subjects (incl. 80/120 mg BID extension)
Type: in vivo, human
Settings: for Cmax: read-out: Cmax; for concentration at 2 day: day 2; for concentration at 3 day: day 3; for concentration at 4 day: day 4; for concentration at 5 day: day 5; for concentration at 6 day: day 6; for Vd/F: read-out: Vss/F
Description: Study Design. […] Single ascending dose (SAD) cohorts. […] Multiple ascending dose (MAD) cohorts. […] Blood Sampling and Bioanalysis. Two-milliliter blood samples were collected for PK analysis. […] The lower limit of quantification was 0.500 ng/mL. Pharmacokinetics. […] Bioanalysis Assay of ATI-450. Sample processing was performed by protein precipitation using a 50.0-μL sample volume. […] A triple quadrupole 6500 mass spectrometer equipped with a turbo-ion spray source was used for detection in positive ion mode. […] A linear calibration curve ranging from 0.500 to 500 ng/mL with a 1/x^2 weighting factor was used. The method was minimally required to have intra- and inter-day precision (coefficients of variation) for pooled plasma quality control samples of ≤15% except at the lower limit of quantitation, where ≤20% was acceptable. The calculated concentrations (both inter- and intra-day) were required to be within 15% of nominal at all concentrations except the lower limit of quantitation, where up to 20% deviation from nominal was acceptable. The precision and accuracy of the method exceeded these minimum requirements for assay validation.

[1] = both sexes, human, plasma, oral, 80 mg, 80 mg BID, read-out: Ctrough
[2] = both sexes, human, plasma, oral, 80 mg, 80 mg BID, day 7
[3] = both sexes, human, plasma, oral, 120 mg, 120 mg BID, day 1
[4] = both sexes, human, plasma, oral, 120 mg, 120 mg BID, read-out: Ctrough
[5] = both sexes, human, plasma, oral, 120 mg, 120 mg BID, day 7
[6] = both sexes, human, plasma, po, 10 mg, single oral dose 10 mg, fasted
[7] = both sexes, human, plasma, po, 30 mg, single oral dose 30 mg, fasted
[8] = both sexes, human, plasma, po, 50 mg, single oral dose 50 mg, fasted
[9] = both sexes, human, plasma, po, 100 mg, single oral dose 100 mg, fasted
[10] = both sexes, human, plasma, po, 100 mg, single oral dose 100 mg, fed (high-fat, high-calorie breakfast)
[11] = single oral dose 100 mg, fasted

Work on `Cc1cnc(-c2ccnc(C(C)(C)O)n2)cc1-n1c(C)cc(OCc2ncc(F)cc2F)c(Cl)c1=O` (single isomer, unassigned) [ATI-450, 3-chloro-4-((3,5-difluoropyridin-2-yl)methoxy)-2′-(2-(2-hydroxypropan-2-yl)pyrimidin-4-yl)-5′,6-dimethyl-2H-[1,4′-bipyridin]-2-one] yielded a Cmax (both sexes, human, plasma, oral, 80 mg, 80 mg BID, day 1) of 258 ± 83.8 ng/mL, a Tmax (both sexes, human, plasma, oral, 80 mg, 80 mg BID, day 1, read-out: Tmax, median (min, max)) of 2 h and a concentration at 2 day [1] of 176 ± 67.5 ng/mL. The concentration at 3 day [1] was 149 ± 54 ng/mL, the concentration at 4 day [1] was 148 ± 59.9 ng/mL and the concentration at 5 day [1] was 145 ± 78.3 ng/mL. It also gave a concentration at 6 day [1] of 144 ± 64.9 ng/mL, an AUC [2] of 2550 ± 730 ng·h/mL and an AUC(0-t) (both sexes, human, plasma, oral, 80 mg, 80 mg BID, day 7, read-out: AUC0-24, total daily exposure calculated as AUC0-12 × 2) of 5100 ng·h/mL. For the same compound, the AUC(0-t) (both sexes, human, plasma, oral, 80 mg, 80 mg BID, day 7, read-out: AUC0-t) was 4030 ± 1150 ng·h/mL, the concentration at 7 day (both sexes, human, plasma, oral, 80 mg, 80 mg BID, day 7, read-out: Cavg) was 212 ± 60.8 ng/mL and the Cmax [2] was 389 ng/mL. It also gave a concentration at 7 day (both sexes, human, plasma, oral, 80 mg, 80 mg BID, day 7, read-out: Cmin) of 100 ± 39.8 ng/mL, a Tmax (both sexes, human, plasma, oral, 80 mg, 80 mg BID, day 7, read-out: Tmax, median (min, max)) of 2 h and a half-life (both sexes, human, plasma, oral, 80 mg, 80 mg BID, day 7, read-out: t1/2 (converted)) of 14.3 ± 5.3 h. For the same compound, the concentration at 7 day (both sexes, human, plasma, oral, 120 mg BID, day 7, read-out: Ctrough) was 156 ng/mL, the AUC [3] was 2320 ± 383 ng·h/mL and the AUC(0-t) (both sexes, human, plasma, oral, 120 mg, 120 mg BID, day 1, read-out: AUC0-t) was 2310 ± 380 ng·h/mL. For the same compound, the Cmax [3] was 379 ± 60.6 ng/mL, the Tmax (both sexes, human, plasma, oral, 120 mg, 120 mg BID, day 1, read-out: Tmax, median (min, max)) was 3 h and the concentration at 2 day [4] was 152 ± 93.3 ng/mL. The concentration at 3 day [4] was 144 ± 98.8 ng/mL, the concentration at 4 day [4] was 126 ± 84.4 ng/mL and the concentration at 5 day [4] was 145 ± 67.5 ng/mL. It also gave a concentration at 6 day [4] of 161 ± 87.5 ng/mL, an AUC [5] of 2580 ± 1030 ng·h/mL and an AUC(0-t) (both sexes, human, plasma, oral, 120 mg, 120 mg BID, day 7, read-out: AUC0-24, total daily exposure calculated as AUC0-12 × 2) of 5160 ng·h/mL. For the same compound, the AUC(0-t) (both sexes, human, plasma, oral, 120 mg, 120 mg BID, day 7, read-out: AUC0-t) was 4170 ± 2090 ng·h/mL, the concentration at 7 day (both sexes, human, plasma, oral, 120 mg, 120 mg BID, day 7, read-out: Cavg) was 215 ± 85.9 ng/mL and the Cmax [5] was 416 ng/mL. For the same compound, the concentration at 7 day (both sexes, human, plasma, oral, 120 mg, 120 mg BID, day 7, read-out: Cmin) was 96.1 ± 64.1 ng/mL, the Tmax (both sexes, human, plasma, oral, 120 mg, 120 mg BID, day 7, read-out: Tmax, median (min, max)) was 2 h and the half-life (both sexes, human, plasma, oral, 120 mg, 120 mg BID, day 7, read-out: t1/2 (converted)) was 8.7 ± 2.4 h. It also gave a half-life (both sexes, human, plasma, oral, MAD cohorts 10-50 mg BID, day 7, read-out: terminal half-life (mean t1/2), range over cohorts) of 9 to 12 h, a half-life (both sexes, human, plasma, oral, SAD cohorts, fasted, read-out: mean t1/2, range across dose cohorts) of 9 to 11 h and a Tmax (both sexes, human, plasma, oral, SAD cohorts, fasted, read-out: median Tmax, range across dose cohorts) of 2 to 4 h. For the same compound, the Vd/F (both sexes, human, plasma, oral, 50 mg BID, day 7) was 586 ± 163 L, the Vd/F (both sexes, human, plasma, oral, 80 mg BID, day 7) was 690 ± 294 L and the Vd/F (both sexes, human, plasma, oral, 120 mg BID, day 7) was 621 ± 183 L. The AUC(0-inf) [6] was 285 ng·h/mL, the Cmax [6] was 39.4 ng/mL and the Tmax (both sexes, human, plasma, po, 10 mg, single oral dose 10 mg, fasted, read-out: Tmax, median (min, max)) was 2 h. For the same compound, the half-life (both sexes, human, plasma, po, 10 mg, single oral dose 10 mg, fasted, read-out: t1/2 (converted)) was 8.5 h, the AUC(0-inf) [7] was 1100 ng·h/mL and the Cmax [7] was 122 ng/mL. The Tmax (both sexes, human, plasma, po, 30 mg, single oral dose 30 mg, fasted, read-out: Tmax, median (min, max)) was 4 h, the half-life (both sexes, human, plasma, po, 30 mg, single oral dose 30 mg, fasted, read-out: t1/2 (converted)) was 10.7 h and the AUC(0-inf) [8] was 1460 ng·h/mL. The Cmax [8] was 161 ng/mL, the Tmax (both sexes, human, plasma, po, 50 mg, single oral dose 50 mg, fasted, read-out: Tmax, median (min, max)) was 3 h and the half-life (both sexes, human, plasma, po, 50 mg, single oral dose 50 mg, fasted, read-out: t1/2 (converted)) was 9.1 h. The AUC(0-inf) [9] was 3650 ng·h/mL, the Cmax [9] was 426 ng/mL and the Tmax (both sexes, human, plasma, po, 100 mg, single oral dose 100 mg, fasted, read-out: Tmax, median (min, max)) was 2 h. For the same compound, the half-life (both sexes, human, plasma, po, 100 mg, single oral dose 100 mg, fasted, read-out: t1/2 (converted)) was 11.2 h, the AUC(0-inf) [10] was 4100 ng·h/mL and the Cmax [10] was 371 ng/mL. For the same compound, the Tmax (both sexes, human, plasma, po, 100 mg, single oral dose 100 mg, fed (high-fat, high-calorie breakfast), read-out: Tmax, median (min, max)) was 6 h, the half-life (both sexes, human, plasma, po, 100 mg, single oral dose 100 mg, fed (high-fat, high-calorie breakfast), read-out: t1/2 (converted)) was 6.3 h and the AUC(0-t) (single oral dose 10 mg, fasted) was 276.3 ± 77.8 ng·h/mL. For the same compound, the CL/F (single oral dose 10 mg, fasted) was 37.0 ± 8.8 L/h, the “Tmax, median (min, max)” value (single oral dose 10 mg, fasted) was 2.0 (2.0-4.0) h and the Vz/F (single oral dose 10 mg, fasted) was 430.2 ± 124.0 L. For the same compound, the t1/2 (single oral dose 10 mg, fasted) was 8.5 ± 3.2 h, the AUC(0-t) (single oral dose 30 mg, fasted) was 1074.0 ± 243.5^a h*ng/mL and the CL/F (single oral dose 30 mg, fasted) was 28.4 ± 7.1^a L/h. The “Tmax, median (min, max)” value (single oral dose 30 mg, fasted) was 4.0 (2.0-4.1) h, the Vz/F (single oral dose 30 mg, fasted) was 451.4 ± 201.5^a L and the AUC(0-t) (single oral dose 50 mg, fasted) was 1430.0 ± 254.0 ng·h/mL. For the same compound, the CL/F (single oral dose 50 mg, fasted) was 35.1 ± 6.3 L/h, the “Tmax, median (min, max)” value (single oral dose 50 mg, fasted) was 3.0 (2.0-4.0) h and the Vz/F (single oral dose 50 mg, fasted) was 445.0 ± 94.7 L. It also gave a t1/2 (single oral dose 50 mg, fasted) of 9.1 ± 2.4 h, an AUC(0-t) [11] of 3489.8 ± 475.7 ng·h/mL and a CL/F [11] of 27.9 ± 4.3 L/h. For the same compound, the “Tmax, median (min, max)” value [11] was 2.0 (2.0, 4.0) h and 2.0 (2.0-4.0) h, the Vz/F [11] was 439.8 ± 189.7 L and the t1/2 [11] was 11.2 ± 5.8 h. The “Tmax, median (min, max)” value (single oral dose 100 mg, fed (high-fat, high-calorie breakfast)) was 6.0 (4.0, 12.0) h and the “steady state reached by day” value (twice-daily administration, all dose levels 10-50 mg) was ≤ 2 days.
